pIC50: −log10 of the molar value.
Tests used:
[1] = mouse, in vivo, intravenous
[2] = system: human colon carcinoma (LS174T); test: LS174T xenograft efficacy study
Procedure: Healthy young female nude mice were subcutaneously implanted with chunks of LS174T. […] Tumor size and body weights were measured twice weekly for up to 60 days.

[3] = system: HT-29 (colon carcinoma) cells; conditions: HT29, 48 hours, 3H-thymidine incorporation
normal ICR mice = test: Single dose Maximum Tolerated Dose (SD-MTD) study, 49 days, ICR mice (Examples 5 and 6)
Procedure: In a second single dose Maximum Tolerated Dose (SD-MTD) study, groups of five normal ICR mice were administered intravenous bolus doses of Suc-Leu-Ala-Leu-Dox. The mice were observed daily for 49 days and body weights measured twice weekly.
In a second single dose Maximum Tolerated Dose (SD-MTD) study, groups of five normal ICR mice were administered intravenous bolus doses of Suc-Leu-Ala-Gly-Dox. The mice were observed daily for 49 days and body weights measured twice weekly.

[4] = system: HeLa cell anion exchange fraction (F1), trouase; test: Relative cleavage by HeLa cell anion exchange fraction (F1) versus Suc-βAla-Leu-Ala-Leu standard; assay type: biochemical, human
Procedure: Thirty billion commercially produced HeLa Cells (human cervical carcinoma, Computer Cell Culture Ceizter, Seneffe, Belgium) were homogenized with a sonicator and with a Dounce homogenizer in 108 mL of aqueous lysis solution. The lysis solution contained 0.02% w/v Triton X-100, 0.04% w/v sodium azide, and a cocktail of protease inhibitors (2 tablets/50 mL Complete™, EDTA-free tablets, Roche Molecular Biochemicals). The cell homogenate was centrifuged 30 minutes at 4° C. at 5000×g and the pellet was homogenized in a second 108 mL of lysis solution using a Dounce homogenizer and centrifuged as before. The supernatants were combined and centrifuged for 90 min at 145,000×g at 4° C.
A portion of the ultracentrifugation supernatant was diluted 2-fold with a 20 mM triethanolamine-HCl pH 7.2 buffer containing 0.01% (w/v) Triton X-100 and 0.02% (w/v) sodium azide (equilibration buffer). Thirty mL of the resulting solution, corresponding to approximately 180 mg of protein, was loaded at 4° C. on a 2.6×9.4 cm Source™ 15Q (Amersham Pharmacia Biotech) low pressure anion exchange chromatography column (1 ml/minute). The column was then washed with 250 ml of the equilibration buffer at a flow rate of 1 mL/minute. Proteins were eluted in a NaCl linear concentration gradient (0–0.5 M in the equilibration buffer, total volume of the gradient was 1000 ml) at a flow rate of 3 ml/minute. Two-minute fractions were collected and used for enzyme activity determination using βAla-Leu-Ala-Leu-Dox as the substrate. Its transformation into Ala-Leu-Dox was quantified by reverse phase high performance liquid chromatography utilizing fluorescence detection of the anthracycline moiety. The fractions containing the highest activity levels were pooled (fractions #43–46; ˜0.13 M NaCl), supplemented with protease inhibitors (Complete™, EDTA-free tablets, Roche Molecular Biochemicals), and stored as aliquots at −80° C.
Test compounds were incubated for 2 hr at 37° C. at a concentration of 12.5 μg/mL with HeLa cell anion exchange fraction (F1), as prepared in Example 1(c). Following incubation, three volumes of acetonitrile were added to stop the reaction and remove protein from the mixture. The sample was centrifuged at 18,000 g for 5 minutes and 100 μL of supernatant was mixed with 300 μL of water prior to analysis by HPLC. For HPLC analysis 50 μL of sample was injected on a 4.6×50 mm 2μ TSK Super-ODS chromatography column at 40° C. and eluted with a 3 minute linear gradient from 26% to 68% acetonitrile in aqueous 20 mM ammonium acetate pH 4.5 buffer at 2 mL/min. Detection was by fluorescence using an excitation wavelength of 235 nm and an emission wavelength of 560 nm.
the amount of cleavage of each test compound was compared to the amount of a standard Suc-βAla-Leu-Ala-Leu-therapeutic agent conjugate cleaved by F1 under the same conditions. The therapeutic agent in the standard (Dox or Dnr) was the same as in the test compound. Table 3 provides the relative cleavage rates of several tripeptide prodrugs.

COc1cccc2c1C(=O)c1c(O)c3c(c(O)c1C2=O)C[C@@](O)(C(=O)CO)C[C@@H]3O[C@H]1C[C@H](NC(=O)[C@H](CC(C)C)NC(=O)[C@H](C)NC(=O)[C@H](CC(C)C)NC(=O)CCC(=O)O)[C@H](O)[C@H](C)O1 [Suc-Leu-Ala-Leu-Dox]
MTD at 28 day [1]: ~59 mg/kg | Mean Day of Survival ([2]; 52 mg/kg every 5 days for 5 doses): 20 days | Mean Day of Survival ([2]; 63 mg/kg every 5 days for 5 doses): 32 days | anti-tumor activity in LS174T xenograft ([2]; doxorubicin-insensitive model): decreased the rate of tumor growth considerably | pIC50 [3]: 4.44 | acute toxicity, within 24 hours (normal ICR mice; any dose level): no acute toxicity | SD-MTD (mg/kg Dox =) (normal ICR mice; doxorubicin equivalent, intravenous bolus, ICR mice, Day 49): 42 mg/kg Dox = | dose groups with toxicity (partial hind-end paralysis, body weight loss >20%) (normal ICR mice; single intravenous bolus, 49 days): ≥ 94 mg/kg | Relative Cleavage % ([4]; 2 hr at 37° C., 12.5 μg/mL, HeLa F1, relative to Suc-βAla-Leu-Ala-Leu-(Dox or Dnr) standard): 62% | Relative Rate of Cleavage ([4]; relative to Suc-βAla-Leu-Ala-Leu-Dox = 100 (Tables 11 and 12)): 62

Reference: patent US7214663B2, “Tripeptide prodrug compounds” (Medarex, Inc., priority 2001, dated 2007)
